From patent publication US20020137929A1, “1 - (3-heterocyclylphenyl) isothiourea, -isourea, -guanidine and -amidine herbicidal agents” (Intellectual Property Department, BASF Aktiengesellschaft, priority 1998, published 2002)

Experiments:
CASOB (Sicklepod) = assay: Preemergence herbicidal evaluation; type: in vivo, Cassia obtusifolia; conditions: rated 4-5 weeks after treatment
Procedure, shortened: (§1)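 Herbicidal effect scored visually, 0-9, at 4 to 5 weeks against a control; compound applied preemergence by aqueous acetone spray to seeded soil at about 0.0156 to 0.500 kg/ha.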

ORYSAT (Rice, Tebonnet) = assay: Postemergence herbicidal evaluation; type: in vivo, Oryza sativa, (L.) Tebonnet; conditions: for ORYSAT herbicidal rating: postemergence
Procedure, shortened: (§2)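 Seedlings grown about two weeks were sprayed at 40 psi with compound dispersed in 50/50 acetone/water plus 0.5% TWEEN 20, at about 0.0156 to 0.500 kg/ha. Plants were kept in the greenhouse and scored 4–5 weeks later on a 0–9 visual scale against untreated controls.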

ABUTH (Velvetleaf) [1] = assay: Preemergence herbicidal evaluation; type: in vivo, Abutilon theophrasti; conditions: rated 4-5 weeks after treatment
Procedure, shortened: as §1

ABUTH (Velvetleaf) [2] = assay: Postemergence herbicidal evaluation; type: in vivo, Abutilon theophrasti; conditions: for ABUTH herbicidal rating: postemergence
Procedure, shortened: as §2

MOOVA (Monochoria) = assay: Preemergence weed control under flooded paddy conditions; type: in vivo, Monochoria vaginalis; conditions: rated 3-4 weeks after treatment
Procedure, shortened: (§3)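 Seeds or propagules sown in silt loam kept flooded 1.5-3 cm; compounds in 50/50 acetone/water pipetted into flood water at about 0.0313 to 0.500 kg/ha. Greenhouse; visual 0-9 rating versus untreated control 3-4 weeks after treatment.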

[3] = tested on: SAGPY (Arrowhead (Pygmaea)); assay: Postemergence weed control under flooded paddy conditions; type: in vivo, Sagittaria pygmaea; conditions: postemergence weeds
Procedure, shortened: (§4)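 Herbicidal effect is judged by eye on a 0–9 scale versus control, 3–4 weeks after dosing. Dosing is into flood water kept 1.5–3 cm over the soil, at about 0.0313–0.500 kg/ha in aqueous/acetone 50/50 v/v, on 3–5 cm weeds and 1.5–2.5-leaf rice seedlings.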

[4] = tested on: GLXMAW (Soybean, Williams); assay: Postemergence herbicidal evaluation; type: in vivo, Glycine max, (L.) Merr. cv Williams; conditions: for GLXMAW herbicidal rating: postemergence
Procedure, shortened: as §2

[5] = tested on: TRZAWR (Wheat, Winter, cv Riband); assay: Postemergence herbicidal evaluation; type: in vivo, Triticum aestivum; conditions: for TRZAWR herbicidal rating: postemergence
Procedure, shortened: as §2

SETVI (Foxtail, Green) [6] = assay: Postemergence herbicidal evaluation; type: in vivo, Setaria viridis; conditions: for SETVI herbicidal rating: postemergence
Procedure, shortened: as §2

SETVI (Foxtail, Green) [7] = assay: Preemergence herbicidal evaluation; type: in vivo, Setaria viridis; conditions: rated 4-5 weeks after treatment
Procedure, shortened: as §1

[8] = tested on: SAGPY (Arrowhead (Pygmaea)); assay: Preemergence weed control under flooded paddy conditions; type: in vivo, Sagittaria pygmaea; conditions: rated 3-4 weeks after treatment
Procedure, shortened: as §3

ECHCG (Barnyardgrass) = assay: Postemergence herbicidal evaluation; type: in vivo, Echinochloa crus-galli; conditions: for ECHCG herbicidal rating: postemergence
Procedure, shortened: as §2

AMBEL (Ragweed, Common) = assay: Postemergence herbicidal evaluation; type: in vivo, Ambrosia artemisifolia; conditions: for AMBEL herbicidal rating: postemergence
Procedure, shortened: as §2

CYPIR (Rice Flatsedge) = assay: Postemergence weed control under flooded paddy conditions; type: in vivo, Cyperus iria; conditions: postemergence weeds
Procedure, shortened: as §4

[9] = Rate 0.0313 kg/ha, rated 3 to 4 weeks after treatment
[10] = Rate 0.0625 kg/ha, rated 3 to 4 weeks after treatment
[11] = Rate 0.1250 kg/ha, rated 3 to 4 weeks after treatment
[12] = Rate 0.2500 kg/ha, rated 3 to 4 weeks after treatment
[13] = rate 0.0313 kg/ha, 3-4 weeks after treatment
[14] = rate 0.0625 kg/ha, 3-4 weeks after treatment
[15] = rate 0.1250 kg/ha, 3-4 weeks after treatment
[16] = rate 0.2500 kg/ha, 3-4 weeks after treatment

CN1C(=O)C(CC(=O)O)SC1=Nc1cc(-n2c(=O)cc(C(F)(F)F)n(C)c2=O)c(F)cc1Cl (centres unmarked) [Compound 63, 2-{{2-Chloro-5-[3,6-dihydro-3-methyl-2,6-dioxo-4-(trifluoromethyl)-1(2H)-pyrimidinyl]-4-fluoro-phenyl}imino}-3-methyl-4-oxo-5-thiazolidineacetic acid]
Preemergence herbicidal rating CASOB (CASOB (Sicklepod); rate 0.0156 kg/ha): 0.0 | Preemergence herbicidal rating CASOB (CASOB (Sicklepod); rate 0.0313 kg/ha): 2.0 | Preemergence herbicidal rating CASOB (CASOB (Sicklepod); rate 0.0625 kg/ha): 2.0 | Preemergence herbicidal rating CASOB (CASOB (Sicklepod); rate 0.1250 kg/ha): 2.0 | Preemergence herbicidal rating CASOB (CASOB (Sicklepod); rate 0.2500 kg/ha): 7.0 | Postemergence herbicidal rating ORYSAT (ORYSAT (Rice, Tebonnet); Rate 0.0158 kg/ha): 5.0 | Postemergence herbicidal rating ORYSAT (ORYSAT (Rice, Tebonnet); Rate 0.0315 kg/ha): 5.0 | Postemergence herbicidal rating ORYSAT (ORYSAT (Rice, Tebonnet); Rate 0.0630 kg/ha): 6.0 | Preemergence herbicidal rating ABUTH (ABUTH (Velvetleaf) [1]; rate 0.0156 kg/ha): 1.0 | Preemergence herbicidal rating ABUTH (ABUTH (Velvetleaf) [1]; rate 0.0313 kg/ha): 6.0 | Preemergence herbicidal rating ABUTH (ABUTH (Velvetleaf) [1]; rate 0.0625 kg/ha): 9.0 | Preemergence herbicidal rating ABUTH (ABUTH (Velvetleaf) [1]; rate 0.1250 kg/ha): 9.0 | Preemergence herbicidal rating ABUTH (ABUTH (Velvetleaf) [1]; rate 0.2500 kg/ha): 9.0 | Postemergence herbicidal rating ABUTH (ABUTH (Velvetleaf) [2]; Rate 0.0158 kg/ha): 9.0 | Postemergence herbicidal rating ABUTH (ABUTH (Velvetleaf) [2]; Rate 0.0315 kg/ha): 6.0 | Postemergence herbicidal rating ABUTH (ABUTH (Velvetleaf) [2]; Rate 0.0630 kg/ha): 9.0 | MOOVA herbicidal effect rating (MOOVA (Monochoria); 0.0313 kg/ha): 9.0 | MOOVA herbicidal effect rating (MOOVA (Monochoria); 0.0625 kg/ha): 9.0 | MOOVA herbicidal effect rating (MOOVA (Monochoria); 0.1250 kg/ha): 9.0 | MOOVA herbicidal effect rating (MOOVA (Monochoria); 0.2500 kg/ha): 9.0 | Herbicidal rating SAGPY [3, 9]: 4.0 | Herbicidal rating SAGPY [3, 10]: 7.0 | Herbicidal rating SAGPY [3, 11]: 9.0 | Herbicidal rating SAGPY [3, 12]: 9.0 | Postemergence herbicidal rating GLXMAW ([4]; Rate 0.0158 kg/ha): 6.5 | Postemergence herbicidal rating GLXMAW ([4]; Rate 0.0315 kg/ha): 8.5 | Postemergence herbicidal rating GLXMAW ([4]; Rate 0.0630 kg/ha): 7.5 | Postemergence herbicidal rating TRZAWR ([5]; Rate 0.0158 kg/ha): 5.5 | Postemergence herbicidal rating TRZAWR ([5]; Rate 0.0315 kg/ha): 6.0 | Postemergence herbicidal rating TRZAWR ([5]; Rate 0.0630 kg/ha): 7.0 | Postemergence herbicidal rating SETVI (SETVI (Foxtail, Green) [6]; Rate 0.0158 kg/ha): 9.0 | Postemergence herbicidal rating SETVI (SETVI (Foxtail, Green) [6]; Rate 0.0315 kg/ha): 9.0 | Postemergence herbicidal rating SETVI (SETVI (Foxtail, Green) [6]; Rate 0.0630 kg/ha): 9.0 | Preemergence herbicidal rating SETVI (SETVI (Foxtail, Green) [7]; rate 0.0156 kg/ha): 0.0 | Preemergence herbicidal rating SETVI (SETVI (Foxtail, Green) [7]; rate 0.0313 kg/ha): 0.0 | Preemergence herbicidal rating SETVI (SETVI (Foxtail, Green) [7]; rate 0.0625 kg/ha): 1.0 | Preemergence herbicidal rating SETVI (SETVI (Foxtail, Green) [7]; rate 0.1250 kg/ha): 9.0 | Preemergence herbicidal rating SETVI (SETVI (Foxtail, Green) [7]; rate 0.2500 kg/ha): 9.0 | SAGPY herbicidal effect rating ([8]; 0.0313 kg/ha): 4.0 | SAGPY herbicidal effect rating ([8]; 0.0625 kg/ha): 7.0 | SAGPY herbicidal effect rating ([8]; 0.1250 kg/ha): 9.0 | SAGPY herbicidal effect rating ([8]; 0.2500 kg/ha): 9.0 | Postemergence herbicidal rating ECHCG (ECHCG (Barnyardgrass); Rate 0.0158 kg/ha): 2.0 | Postemergence herbicidal rating ECHCG (ECHCG (Barnyardgrass); Rate 0.0315 kg/ha): 2.0 | Postemergence herbicidal rating ECHCG (ECHCG (Barnyardgrass); Rate 0.0630 kg/ha): 6.0 | Postemergence herbicidal rating AMBEL (AMBEL (Ragweed, Common); Rate 0.0158 kg/ha): 6.0 | Postemergence herbicidal rating AMBEL (AMBEL (Ragweed, Common); Rate 0.0315 kg/ha): 6.0 | Postemergence herbicidal rating AMBEL (AMBEL (Ragweed, Common); Rate 0.0630 kg/ha): 9.0 | Herbicidal rating CYPIR (CYPIR (Rice Flatsedge); [9]): 2.0 | Herbicidal rating CYPIR (CYPIR (Rice Flatsedge); [10]): 6.0 | Herbicidal rating CYPIR (CYPIR (Rice Flatsedge); [11]): 7.0 | Herbicidal rating CYPIR (CYPIR (Rice Flatsedge); [12]): 7.0

Cn1c(C(F)(F)F)cc(=O)n(-c2cc(N=C3SCC(=O)N3Cc3ccccc3)c(Cl)cc2F)c1=O [Compound 26]
Preemergence herbicidal rating CASOB (CASOB (Sicklepod); rate 0.0156 kg/ha): 0.0 | Preemergence herbicidal rating CASOB (CASOB (Sicklepod); rate 0.0313 kg/ha): 0.0 | Preemergence herbicidal rating CASOB (CASOB (Sicklepod); rate 0.0625 kg/ha): 0.0 | Preemergence herbicidal rating CASOB (CASOB (Sicklepod); rate 0.1250 kg/ha): 0.0 | Preemergence herbicidal rating CASOB (CASOB (Sicklepod); rate 0.2500 kg/ha): 0.0 | ORYSAT herbicidal rating (ORYSAT (Rice, Tebonnet); rate 0.0156 kg/ha): 0.5 | ORYSAT herbicidal rating (ORYSAT (Rice, Tebonnet); rate 0.0313 kg/ha): 1.0 | ORYSAT herbicidal rating (ORYSAT (Rice, Tebonnet); rate 0.0625 kg/ha): 1.5 | Preemergence herbicidal rating ABUTH (ABUTH (Velvetleaf) [1]; rate 0.0156 kg/ha): 0.0 | Preemergence herbicidal rating ABUTH (ABUTH (Velvetleaf) [1]; rate 0.0313 kg/ha): 0.0 | Preemergence herbicidal rating ABUTH (ABUTH (Velvetleaf) [1]; rate 0.0625 kg/ha): 0.0 | Preemergence herbicidal rating ABUTH (ABUTH (Velvetleaf) [1]; rate 0.1250 kg/ha): 6.0 | Preemergence herbicidal rating ABUTH (ABUTH (Velvetleaf) [1]; rate 0.2500 kg/ha): 9.0 | ABUTH herbicidal rating (ABUTH (Velvetleaf) [2]; rate 0.0156 kg/ha): 9.0 | ABUTH herbicidal rating (ABUTH (Velvetleaf) [2]; rate 0.0313 kg/ha): 9.0 | ABUTH herbicidal rating (ABUTH (Velvetleaf) [2]; rate 0.0625 kg/ha): 9.0 | Herbicidal rating MOOVA (MOOVA (Monochoria); 0.0313 kg/ha): 9.0 | Herbicidal rating MOOVA (MOOVA (Monochoria); 0.0625 kg/ha): 9.0 | Herbicidal rating MOOVA (MOOVA (Monochoria); 0.1250 kg/ha): 9.0 | Herbicidal rating MOOVA (MOOVA (Monochoria); 0.2500 kg/ha): 9.0 | Herbicidal rating SAGPY [3, 13]: 0.0 | Herbicidal rating SAGPY [3, 14]: 4.0 | Herbicidal rating SAGPY [3, 15]: 5.0 | Herbicidal rating SAGPY [3, 16]: 7.0 | GLXMAW herbicidal rating ([4]; rate 0.0156 kg/ha): 5.5 | GLXMAW herbicidal rating ([4]; rate 0.0313 kg/ha): 5.5 | GLXMAW herbicidal rating ([4]; rate 0.0625 kg/ha): 6.0 | TRZAWR herbicidal rating ([5]; rate 0.0156 kg/ha): 1.5 | TRZAWR herbicidal rating ([5]; rate 0.0313 kg/ha): 2.5 | TRZAWR herbicidal rating ([5]; rate 0.0625 kg/ha): 3.5 | SETVI herbicidal rating (SETVI (Foxtail, Green) [6]; rate 0.0156 kg/ha): 0.0 | SETVI herbicidal rating (SETVI (Foxtail, Green) [6]; rate 0.0313 kg/ha): 0.0 | SETVI herbicidal rating (SETVI (Foxtail, Green) [6]; rate 0.0625 kg/ha): 0.0 | Preemergence herbicidal rating SETVI (SETVI (Foxtail, Green) [7]; rate 0.0156 kg/ha): 0.0 | Preemergence herbicidal rating SETVI (SETVI (Foxtail, Green) [7]; rate 0.0313 kg/ha): 0.0 | Preemergence herbicidal rating SETVI (SETVI (Foxtail, Green) [7]; rate 0.0625 kg/ha): 0.0 | Preemergence herbicidal rating SETVI (SETVI (Foxtail, Green) [7]; rate 0.1250 kg/ha): 5.0 | Preemergence herbicidal rating SETVI (SETVI (Foxtail, Green) [7]; rate 0.2500 kg/ha): 9.0 | Herbicidal rating SAGPY ([8]; 0.0313 kg/ha): 0.0 | Herbicidal rating SAGPY ([8]; 0.0625 kg/ha): 4.0 | Herbicidal rating SAGPY ([8]; 0.1250 kg/ha): 5.0 | Herbicidal rating SAGPY ([8]; 0.2500 kg/ha): 7.0 | ECHCG herbicidal rating (ECHCG (Barnyardgrass); rate 0.0156 kg/ha): 0.0 | ECHCG herbicidal rating (ECHCG (Barnyardgrass); rate 0.0313 kg/ha): 0.0 | ECHCG herbicidal rating (ECHCG (Barnyardgrass); rate 0.0625 kg/ha): 0.0 | AMBEL herbicidal rating (AMBEL (Ragweed, Common); rate 0.0156 kg/ha): 9.0 | AMBEL herbicidal rating (AMBEL (Ragweed, Common); rate 0.0313 kg/ha): 8.0 | AMBEL herbicidal rating (AMBEL (Ragweed, Common); rate 0.0625 kg/ha): 9.0 | Herbicidal rating CYPIR (CYPIR (Rice Flatsedge); [13]): 2.0 | Herbicidal rating CYPIR (CYPIR (Rice Flatsedge); [14]): 4.0 | Herbicidal rating CYPIR (CYPIR (Rice Flatsedge); [15]): 7.0 | Herbicidal rating CYPIR (CYPIR (Rice Flatsedge); [16]): 9.0
